The values below come from US11035852B2, “Identifying drug candidates for treating polycystic kidney disease using organoids generated from primary cells” (UMC Utrecht Holding B.V., priority 2011, dated 2021).

The target in assay [1] is CFTR (Homo sapiens, UniProt P13569). Format: cell-based.
The target of assay [2] is CFTR (Mus musculus, UniProt P26361). Description: Forskolin-induced swelling (FIS) of murine wild-type small intestinal organoids. The note with it: live cell microscopy.

“Also recorded” adds a separate entry of the source.

CFTR (Homo sapiens, UniProt P13569), sequence (P13569 whole entry, looked up): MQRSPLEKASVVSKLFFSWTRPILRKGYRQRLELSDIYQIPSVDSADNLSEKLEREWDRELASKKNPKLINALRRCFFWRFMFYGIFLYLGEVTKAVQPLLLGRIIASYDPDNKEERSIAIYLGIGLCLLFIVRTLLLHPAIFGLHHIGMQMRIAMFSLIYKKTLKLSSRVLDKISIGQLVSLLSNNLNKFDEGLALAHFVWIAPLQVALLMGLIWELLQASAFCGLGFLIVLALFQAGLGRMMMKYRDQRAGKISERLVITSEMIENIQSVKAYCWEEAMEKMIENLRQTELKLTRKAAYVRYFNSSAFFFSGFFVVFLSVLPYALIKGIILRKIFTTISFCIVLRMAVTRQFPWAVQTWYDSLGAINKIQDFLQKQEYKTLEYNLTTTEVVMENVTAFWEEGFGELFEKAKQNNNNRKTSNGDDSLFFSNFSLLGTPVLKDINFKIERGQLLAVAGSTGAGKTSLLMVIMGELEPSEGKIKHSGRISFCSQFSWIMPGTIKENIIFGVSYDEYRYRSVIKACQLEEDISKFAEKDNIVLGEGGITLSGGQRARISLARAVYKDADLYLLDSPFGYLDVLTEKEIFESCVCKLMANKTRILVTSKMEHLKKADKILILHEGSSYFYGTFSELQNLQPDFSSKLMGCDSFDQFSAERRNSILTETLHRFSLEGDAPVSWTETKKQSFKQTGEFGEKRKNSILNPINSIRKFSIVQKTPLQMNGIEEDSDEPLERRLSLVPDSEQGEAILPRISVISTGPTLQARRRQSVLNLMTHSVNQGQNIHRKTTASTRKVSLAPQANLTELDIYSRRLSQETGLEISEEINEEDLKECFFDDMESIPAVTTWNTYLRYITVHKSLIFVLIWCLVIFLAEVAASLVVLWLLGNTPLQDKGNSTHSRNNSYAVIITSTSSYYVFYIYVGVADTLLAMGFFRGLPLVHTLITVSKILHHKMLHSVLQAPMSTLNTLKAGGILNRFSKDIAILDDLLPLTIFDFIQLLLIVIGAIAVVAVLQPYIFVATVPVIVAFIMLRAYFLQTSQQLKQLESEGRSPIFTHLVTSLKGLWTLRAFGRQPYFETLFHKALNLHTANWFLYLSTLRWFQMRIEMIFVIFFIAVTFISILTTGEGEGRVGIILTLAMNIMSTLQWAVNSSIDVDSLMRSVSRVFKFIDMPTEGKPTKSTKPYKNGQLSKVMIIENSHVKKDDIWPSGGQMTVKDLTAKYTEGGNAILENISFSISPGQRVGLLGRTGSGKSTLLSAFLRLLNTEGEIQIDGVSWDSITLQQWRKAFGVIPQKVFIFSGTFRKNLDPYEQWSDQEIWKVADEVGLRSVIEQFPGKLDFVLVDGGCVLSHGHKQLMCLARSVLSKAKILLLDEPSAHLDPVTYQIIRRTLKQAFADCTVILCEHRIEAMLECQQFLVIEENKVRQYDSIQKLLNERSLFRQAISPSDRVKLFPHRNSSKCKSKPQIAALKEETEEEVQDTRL
CFTR (Mus musculus, UniProt P26361), sequence (P26361 whole entry): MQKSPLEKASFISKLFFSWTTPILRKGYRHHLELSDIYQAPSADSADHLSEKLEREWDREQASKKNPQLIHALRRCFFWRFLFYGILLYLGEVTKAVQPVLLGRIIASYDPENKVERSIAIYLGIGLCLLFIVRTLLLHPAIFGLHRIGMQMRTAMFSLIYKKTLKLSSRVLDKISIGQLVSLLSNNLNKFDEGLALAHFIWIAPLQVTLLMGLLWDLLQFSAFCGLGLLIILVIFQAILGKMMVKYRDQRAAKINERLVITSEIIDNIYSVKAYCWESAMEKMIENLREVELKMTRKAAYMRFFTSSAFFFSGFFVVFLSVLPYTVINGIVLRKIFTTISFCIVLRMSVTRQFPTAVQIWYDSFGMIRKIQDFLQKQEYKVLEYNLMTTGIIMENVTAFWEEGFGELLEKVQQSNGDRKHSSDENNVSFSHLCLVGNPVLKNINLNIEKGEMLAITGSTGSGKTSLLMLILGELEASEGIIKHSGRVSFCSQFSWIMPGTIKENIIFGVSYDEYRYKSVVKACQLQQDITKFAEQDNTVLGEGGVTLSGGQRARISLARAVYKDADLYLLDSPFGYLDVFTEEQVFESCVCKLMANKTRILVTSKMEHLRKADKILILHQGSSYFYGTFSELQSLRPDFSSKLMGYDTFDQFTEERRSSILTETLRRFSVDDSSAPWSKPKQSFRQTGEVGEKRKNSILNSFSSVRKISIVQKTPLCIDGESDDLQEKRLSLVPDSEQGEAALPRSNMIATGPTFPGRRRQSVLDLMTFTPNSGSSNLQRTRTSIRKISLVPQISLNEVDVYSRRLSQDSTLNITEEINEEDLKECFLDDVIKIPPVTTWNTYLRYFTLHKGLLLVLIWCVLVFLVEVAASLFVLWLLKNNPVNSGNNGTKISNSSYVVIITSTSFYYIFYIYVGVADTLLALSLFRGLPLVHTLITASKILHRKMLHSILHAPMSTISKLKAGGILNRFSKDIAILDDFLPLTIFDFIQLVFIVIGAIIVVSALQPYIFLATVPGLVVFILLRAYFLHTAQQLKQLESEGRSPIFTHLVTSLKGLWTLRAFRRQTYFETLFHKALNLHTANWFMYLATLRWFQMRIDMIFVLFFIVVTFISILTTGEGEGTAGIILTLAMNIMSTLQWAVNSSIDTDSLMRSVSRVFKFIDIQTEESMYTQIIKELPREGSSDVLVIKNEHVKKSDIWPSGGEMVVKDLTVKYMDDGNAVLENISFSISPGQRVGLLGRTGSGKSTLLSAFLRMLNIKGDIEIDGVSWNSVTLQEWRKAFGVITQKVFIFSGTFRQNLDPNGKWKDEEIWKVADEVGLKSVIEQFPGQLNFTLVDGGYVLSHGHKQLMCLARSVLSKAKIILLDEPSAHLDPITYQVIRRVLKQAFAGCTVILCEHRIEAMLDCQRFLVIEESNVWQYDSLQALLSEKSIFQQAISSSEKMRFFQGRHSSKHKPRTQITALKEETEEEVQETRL

On to `C=C[C@@]1(C)CC(=O)[C@]2(O)[C@@]3(C)[C@@H](O)CCC(C)(C)[C@@H]3[C@H](O)[C@H](OC(C)=O)[C@@]2(C)O1` [forskolin, (3R,4aR,5S,6S,6aS,10S,10aR,10bS)-6,10,10b-trihydroxy-3,4a,7,7,10a-pentamethyl-1-oxo-3-vinyldodecahydro-1H-benzo[f]chromen-5-yl acetate], for which the “Organoid swelling induced by stimulus” value on CFTR [1] (human healthy control organoids) is “rapid forskolin-stimulated swelling”. Besides, the “Increase in organoid size” value on CFTR [1] (human organoids, in the space of 120 minutes (FIG. 8)) is recorded as “more than double in size”. Besides, at CFTR [2], the “Organoid swelling on forskolin addition” value is “rapid expansion of the lumen and total organoid surface area; also recorded: dose-dependent relation between forskolin and increase of surface area over time”.
